# In PMC4430089 (Journal of peptide science : an official publication of the …, 2014):
# Experiments:
# [1] = Circular dichroism: conformation and thermal unfolding; assay type: physicochemical; conditions: for FF @ 37°C (folded fraction): calculated from CD molar ellipticity at 224 nm: FF=CD37-CD80/CDfolded-CD80
# [2] = tested on: 3T3 Swiss mice fibroblasts; assay: Cellular uptake by confocal microscopy; assay type: cell-based; conditions: 15 μM peptide in PBS, 30 min; for Preferential accumulation site within the cell: confocal microscopy without DAPI; for Cellular uptake (FITC fluorescence from cells): confocal microscopy, 37°C
# [3] = tested on: Jurkat E6 human leukemia cells; assay: Cellular uptake by flow cytometry; assay type: cell-based; conditions: 15μM peptide, 10 min
# [4] = tested on: 3T3 Swiss mice fibroblasts; assay: Cell viability, Trypan Blue assay; conditions: 15 μM peptide in PBS, 30 min exposure, three repeats on two plates
substance,measurement,setting,value
FITC-AβGG-POGPOGPOGPOGPOGPOGPOGPOG-RRGRRG [Peptide V1],FF @ 37°C (folded fraction),[1],0.90
same,Preferential accumulation site within the cell,[2],"accumulates to larger extend in cytoplasm than V2, with only small amount reaching the nucleus"
same,Cellular uptake (FITC fluorescence from cells),[2],effectively penetrate the cellular membrane
same,Fluorescence intensity of cells lower than cells incubated with V2,[3],about 20%
same,Number of cells that uptake the peptide,[3],71.2%
same,Cytotoxicity compared to control (cell viability),[4],no significant (p>0.05) toxicity
FITC-AβGG-POGPOGPOGPOGPOGPOGPOGPOG-RRRRRR [Peptide V2],FF @ 37°C (folded fraction),[1],0.82
same,Tm lower than Tm of V1,[1]; difference of CD Tm values,3.2 °C
same,Preferential accumulation site within the cell,[2],stronger preference to accumulate within the nuclear bodies
same,Cellular uptake (FITC fluorescence from cells),[2],effectively penetrate the cellular membrane
same,Number of cells that uptake the peptide,[3],72.8%
same,Cytotoxicity compared to control (cell viability),[4],no significant (p>0.05) toxicity
